Laboratory results reported in US20100298141A1, “SUBSTITUTED PYRIDINE N-OXIDE HERBICIDES” (E. I. DU PONT DE NEMOURS AND COMPANY, priority 2007, published 2010).

How the values were obtained:
[1] = test system: morningglory; assay: Test C pre-/postemergence test; format: in vivo, Ipomoea coccinea; conditions: for Plant response rating, Morningglory: 31 g ai/ha, scale 0 to 100 (0 no effect, 100 complete control)
In short: (§1)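 Seeds were planted and treated preemergence with test chemical in a non-phytotoxic solvent mixture containing surfactant. Postemergence applications of the same formulation went onto plants 2 to 18 cm tall (1- to 4-leaf stage). A dash marks no test result.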

[2] = test system: rice; assay: Test C flooded paddy test; format: in vivo, Oryza sativa; conditions: Flood
In short: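 In-water treatment: compound dosed into 3 cm flood over soil, water level unchanged throughout. Controls run alongside; visual assessment at day 13–15.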

[3] = test system: common (oilseed) sunflower; assay: Test C pre-/postemergence test; format: in vivo, Helianthus annuus; conditions: for Plant response rating, Sunflower: 31 g ai/ha, scale 0 to 100 (0 no effect, 100 complete control)
In short: as §1

[4] = test system: cocklebur; assay: Test C pre-/postemergence test; format: in vivo, Xanthium strumarium; conditions: for Plant response rating, Cocklebur: 31 g ai/ha, scale 0 to 100 (0 no effect, 100 complete control)
In short: as §1

[5] = test system: wild oat; assay: Test C pre-/postemergence test; format: in vivo, Avena fatua; conditions: for Plant response rating, Oat, Wild: 31 g ai/ha, scale 0 to 100 (0 no effect, 100 complete control)
In short: as §1

[6] = test system: corn; assay: Test A pre-/postemergence greenhouse test; format: in vivo, Zea mays; conditions: for Plant response rating, Corn: 0 to 100 scale where 0 is no effect and 100 is complete control; for Corn plant response rating: 0 to 100 scale
In short: (§2)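 Visual injury ratings, made relative to untreated controls roughly ten days after treatment, cover both preemergence and postemergence application. Compounds in a surfactant-containing non-phytotoxic solvent were sprayed onto the soil surface after sowing and, simultaneously, onto young plants at the one- to two-leaf stage.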

[7] = test system: johnsongrass; assay: Test C pre-/postemergence test; format: in vivo, Sorghum halepense; conditions: for Plant response rating, Johnsongrass: 31 g ai/ha, scale 0 to 100 (0 no effect, 100 complete control)
In short: as §1

[8] = test system: bermudagrass; assay: Test C pre-/postemergence test; format: in vivo, Cynodon dactylon; conditions: for Plant response rating, Bermudagrass: 31 g ai/ha
In short: as §1

[9] = test system: corn; assay: Test C pre-/postemergence test; format: in vivo, Zea mays; conditions: for Plant response rating, Corn: 31 g ai/ha, scale 0 to 100 (0 no effect, 100 complete control)
In short: as §1

[10] = test system: eastern black nightshade; assay: Test C pre-/postemergence test; format: in vivo, Solanum ptycanthum; conditions: for Plant response rating, Nightshade: 31 g ai/ha, scale 0 to 100 (0 no effect, 100 complete control)
In short: as §1

[11] = test system: Italian ryegrass; assay: Test C pre-/postemergence test; format: in vivo, Lolium multiflorum; conditions: for Plant response rating, Ryegrass, Italian: 31 g ai/ha, scale 0 to 100 (0 no effect, 100 complete control)
In short: as §1

[12] = test system: redroot pigweed; assay: Test A pre-/postemergence greenhouse test; format: in vivo, Amaranthus retroflexus; conditions: for Plant response rating, Pigweed: 0 to 100 scale where 0 is no effect and 100 is complete control; for Pigweed plant response rating: 0 to 100 scale
In short: as §2

[13] = test system: yellow nutsedge; assay: Test C pre-/postemergence test; format: in vivo, Cyperus esculentus; conditions: for Plant response rating, Nutsedge, Yellow: 31 g ai/ha, scale 0 to 100 (0 no effect, 100 complete control)
In short: as §1

[14] = test system: morningglory; assay: Test A pre-/postemergence greenhouse test; format: in vivo, Ipomoea spp.; conditions: for Plant response rating, Morningglory: 0 to 100 scale where 0 is no effect and 100 is complete control; for Morningglory plant response rating: 0 to 100 scale
In short: as §2

[15] = test system: wheat; assay: Test C pre-/postemergence test; format: in vivo, Triticum aestivum; conditions: for Plant response rating, Wheat: 31 g ai/ha, scale 0 to 100 (0 no effect, 100 complete control)
In short: as §1

[16] = test system: giant foxtail; assay: Test C pre-/postemergence test; format: in vivo, Setaria faberii; conditions: for Plant response rating, Foxtail, Giant: 31 g ai/ha, scale 0 to 100 (0 no effect, 100 complete control)
In short: as §1

[17] = test system: kochia; assay: Test C pre-/postemergence test; format: in vivo, Kochia scoparia; conditions: for Plant response rating, Kochia: 31 g ai/ha, scale 0 to 100 (0 no effect, 100 complete control)
In short: as §1

[18] = 125 g ai/ha, preemergence, scale 0 (no effect) to 100 (complete control)
[19] = 62 g ai/ha, scale 0 to 100 (0 no effect, 100 complete control)
[20] = 250 g ai/ha, scale 0 to 100, 0 no effect, 100 complete control, 13 to 15 days
[21] = 62 g ai/ha, Preemergence, scale 0 to 100
[22] = preemergence, 250 g ai/ha, scale 0 (no effect) to 100 (complete control)
[23] = Postemergence, 500 g ai/ha, 0 is no effect, 100 is complete control
[24] = Preemergence, 125 g ai/ha, 0 no effect, 100 complete control
[25] = 62 g ai/ha, Preemergence, scale 0 to 100 (0 no effect, 100 complete control)
[26] = Preemergence, scale 0 to 100 (0 no effect, 100 complete control)

## Cn1nc(OC(F)F)c(CS(=O)(=O)c2cccc[n+]2[O-])c1C(F)(F)F [Compound 80]
[1]; [18]
  Morningglory plant response rating: 100
[1]; Preemergence
  Plant response rating, Morningglory: 10
[2]; [19]
  Plant response rating, Rice: 0
[2]; [20]
  Plant response rating, Rice: 50
[3]; [21]
  Sunflower plant response rating: 20
[3]; [18]
  Sunflower plant response rating: 40
[3]; Preemergence
  Plant response rating, Sunflower: 5
[3]; [22]
  Sunflower plant response rating: 45
[4]; [21]
  Cocklebur plant response rating: 0
[4]; [18]
  Cocklebur plant response rating: 45
[4]; Preemergence
  Plant response rating, Cocklebur: 0
[4]; [22]
  Cocklebur plant response rating: 80
[5]; [21]
  Oat, Wild plant response rating: 85
[5]; [18]
  Oat, Wild plant response rating: 95
[5]; Preemergence
  Plant response rating, Oat, Wild: 70
[5]; [22]
  Oat, Wild plant response rating: 100
[6]; Postemergence, 125 g ai/ha
  Plant response rating, Corn: 0
[6]; [23]
  Corn plant response rating: 50
[6]; [24]
  Corn plant response rating: 0
[6]; Preemergence, 500 g ai/ha
  Plant response rating, Corn: 60
[7]; [21]
  Johnsongrass plant response rating: 85
[7]; [18]
  Johnsongrass plant response rating: 90
[7]; Preemergence
  Plant response rating, Johnsongrass: 85
[7]; [22]
  Johnsongrass plant response rating: 100
[8]; [25]
  Bermudagrass plant response rating: 100
[8]; [18]
  Bermudagrass plant response rating: 100
[8]; [26]
  Plant response rating, Bermudagrass: 100
[8]; [22]
  Bermudagrass plant response rating: 100
[9]; [21]
  Corn plant response rating: 35
[9]; [18]
  Corn plant response rating: 90
[9]; Preemergence
  Plant response rating, Corn: 30
[9]; [22]
  Corn plant response rating: 98
[10]; [21]
  Nightshade plant response rating: 80
[10]; Preemergence
  Plant response rating, Nightshade: 50
[10]; [22]
  Nightshade plant response rating: 90
[11]; [21]
  Ryegrass, Italian plant response rating: 70
[11]; [18]
  Ryegrass, Italian plant response rating: 85
[11]; Preemergence
  Plant response rating, Ryegrass, Italian: 0
[11]; [22]
  Ryegrass, Italian plant response rating: 90
[12]; Postemergence, 125 g ai/ha
  Plant response rating, Pigweed: 10
[12]; [23]
  Pigweed plant response rating: 40
[12]; [24]
  Pigweed plant response rating: 70
[12]; Preemergence, 500 g ai/ha
  Plant response rating, Pigweed: 90
[13]; [21]
  Nutsedge, Yellow plant response rating: 75
[13]; [18]
  Nutsedge, Yellow plant response rating: 85
[13]; Preemergence
  Plant response rating, Nutsedge, Yellow: 45
[13]; [22]
  Nutsedge, Yellow plant response rating: 95
[14]; Postemergence, 125 g ai/ha
  Plant response rating, Morningglory: 10
[14]; [23]
  Morningglory plant response rating: 50
[14]; [24]
  Morningglory plant response rating: 60
[14]; Preemergence, 500 g ai/ha
  Plant response rating, Morningglory: 80
[15]; [21]
  Wheat plant response rating: 45
[15]; [18]
  Wheat plant response rating: 65
[15]; Preemergence
  Plant response rating, Wheat: 10
[15]; [22]
  Wheat plant response rating: 80
[16]; [21]
  Foxtail, Giant plant response rating: 90
[16]; [18]
  Foxtail, Giant plant response rating: 98
[16]; Preemergence
  Plant response rating, Foxtail, Giant: 80
[16]; [22]
  Foxtail, Giant plant response rating: 100
[17]; [18]
  Kochia plant response rating: 70
[17]; Preemergence
  Plant response rating, Kochia: 0
[17]; [22]
  Kochia plant response rating: 100

## Cn1nc(C(F)(F)F)c(CS(=O)(=O)c2cccc[n+]2[O-])c1OCC(F)F [Compound 81]
[1]; [21]
  Morningglory plant response rating: 0
[1]; [18]
  Morningglory plant response rating: 85
[1]; Preemergence
  Plant response rating, Morningglory: 0
[1]; [22]
  Morningglory plant response rating: 85
[2]; [19]
  Plant response rating, Rice: 0
[2]; [20]
  Plant response rating, Rice: 0
[3]; [21]
  Sunflower plant response rating: 0
[3]; [18]
  Sunflower plant response rating: 50
[3]; Preemergence
  Plant response rating, Sunflower: 0
[3]; [22]
  Sunflower plant response rating: 75
[4]; [21]
  Cocklebur plant response rating: 0
[4]; [18]
  Cocklebur plant response rating: 50
[4]; Preemergence
  Plant response rating, Cocklebur: 0
[4]; [22]
  Cocklebur plant response rating: 60
[5]; [21]
  Oat, Wild plant response rating: 60
[5]; [18]
  Oat, Wild plant response rating: 95
[5]; Preemergence
  Plant response rating, Oat, Wild: 0
[5]; [22]
  Oat, Wild plant response rating: 95
[6]; Postemergence, 125 g ai/ha
  Plant response rating, Corn: 0
[6]; [23]
  Corn plant response rating: 50
[6]; [24]
  Corn plant response rating: 30
[6]; Preemergence, 500 g ai/ha
  Plant response rating, Corn: 70
[7]; [21]
  Johnsongrass plant response rating: 95
[7]; [18]
  Johnsongrass plant response rating: 100
[7]; Preemergence
  Plant response rating, Johnsongrass: 95
[7]; [22]
  Johnsongrass plant response rating: 100
[8]; [25]
  Bermudagrass plant response rating: 100
[8]; [18]
  Bermudagrass plant response rating: 100
[8]; [26]
  Plant response rating, Bermudagrass: 80
[8]; [22]
  Bermudagrass plant response rating: 100
[9]; [21]
  Corn plant response rating: 20
[9]; [18]
  Corn plant response rating: 100
[9]; Preemergence
  Plant response rating, Corn: 0
[9]; [22]
  Corn plant response rating: 100
[10]; [21]
  Nightshade plant response rating: 70
[10]; [18]
  Nightshade plant response rating: 90
[10]; Preemergence
  Plant response rating, Nightshade: 0
[10]; [22]
  Nightshade plant response rating: 90
[11]; [21]
  Ryegrass, Italian plant response rating: 0
[11]; [18]
  Ryegrass, Italian plant response rating: 50
[11]; Preemergence
  Plant response rating, Ryegrass, Italian: 0
[11]; [22]
  Ryegrass, Italian plant response rating: 100
[12]; Postemergence, 125 g ai/ha
  Plant response rating, Pigweed: 40
[12]; [23]
  Pigweed plant response rating: 70
[12]; [24]
  Pigweed plant response rating: 90
[12]; Preemergence, 500 g ai/ha
  Plant response rating, Pigweed: 100
[13]; [21]
  Nutsedge, Yellow plant response rating: 70
[13]; [18]
  Nutsedge, Yellow plant response rating: 85
[13]; Preemergence
  Plant response rating, Nutsedge, Yellow: 50
[13]; [22]
  Nutsedge, Yellow plant response rating: 98
[14]; Postemergence, 125 g ai/ha
  Plant response rating, Morningglory: 30
[14]; [23]
  Morningglory plant response rating: 50
[14]; [24]
  Morningglory plant response rating: 0
[14]; Preemergence, 500 g ai/ha
  Plant response rating, Morningglory: 80
[15]; [21]
  Wheat plant response rating: 5
[15]; [18]
  Wheat plant response rating: 80
[15]; Preemergence
  Plant response rating, Wheat: 0
[15]; [22]
  Wheat plant response rating: 80
[16]; [21]
  Foxtail, Giant plant response rating: 98
[16]; [18]
  Foxtail, Giant plant response rating: 100
[16]; Preemergence
  Plant response rating, Foxtail, Giant: 80
[16]; [22]
  Foxtail, Giant plant response rating: 100
[17]; [21]
  Kochia plant response rating: 100
[17]; [18]
  Kochia plant response rating: 100
[17]; Preemergence
  Plant response rating, Kochia: 40
[17]; [22]
  Kochia plant response rating: 100
